Tests used:
[1] = system: human prostate, breast, colon and lung cancer cells; assay: Single cell migration (motility) assay; format: cell-based; details: PC3-M cells, 10 μM, three days
Text: FIG. 1a is a schematic flow of probe synthesis and development strategy. […] Values are mean±SEM of a single experiment in replicates of N=4, with similar findings in multiple separate experiments (also N=4). […] Values are mean±SEM of a single experiment in replicates of N=24, with similar findings in a separate experiment (also N=24). *Denotes Student's t test P value <0.05, compared to controls. […] Values are mean±SEM from N>2 separate experiments, each in replicates of N=3. […] Values are the mean±SD number of total, CFU-GM, CFU-GEMM or BFU-E colonies at 14 days after treatment with KBU2046, from a single experiment in replicates of N=2. […] Values are the mean±SD of a single experiment, with similar results seen in a separate experiment, both in replicates of N=2.
Cell Migration Assays. Single cell motility assays were conducted by adding 10^4 cells to 35 mm tissue culture dishes (BD Falcon) coated with collagen I (BD Biosciences), incubating at 37° C. in 5% CO2, performing time-lapse imaging using a Biostation (Nikon Instruments), tracking the path of N≥35 cells using ImageJ software and the Manual Tracker plug-in, and using Chemotaxis and Migration Tool plug-in for data analysis.

[2] = system: array of over 9,000 human proteins; assay: ProtoArray Human Protein Microarray binding assay
Description: (§1) PC3-M cells were pre-treated with 10 μM KBU2046 or with KBU2046-biotin for three days, and single cell motility assays conducted. Data are the mean±SEM of a single experiment of N≥24 cells; * denotes Student's 2-sided t-test p-value </=0.05 compared to control. […] PC3-M cells were labeled with 1 μM KBU2046-biotin+/−10 μM free KBU2046, followed by detection with FITC-streptavidin, and visualization by fluorescent microscopy (with equal exposure times). […] KBU2046-biotin was hybridized to ProtoArray® Human Protein Microarray's at 0.5 and 10 μM with and without 10 fold excess free KBU2046.
Protein Microarray Binding Assay. The ProtoArray® assay, using the Human Protein Microarray platform, was performed by Invitrogen.
First, the positive control used in protein arrays was staurosporine.

PC3-M cells [3] = assay: KBU2046-biotin labelling of cells (FITC-streptavidin); format: cell-based, human; details: 1 μM KBU2046-biotin +/- 10 μM free KBU2046
Description: as §1

recombinant CSRP1 = recombinant CSRP1 (Homo sapiens, UniProt P21291); assay: Pull down of recombinant CSRP1 by KBU2046-biotin; format: binding
Description: This yielded 3 proteins, shown in table, for an initial hit rate of 0.03%. Next, free KBU2046 was needed to inhibit binding by >75%. Of the two remaining candidates, isovaleryl-CoA dehydrogenase (ICD) was eliminated. […] Cysteine and glycine-rich protein 1 (CSRP1) was deemed the top protein, though its binding characteristics at 10 μM+free KBU2046 were similar to ICD, albeit not as extreme.

PC3-M cells [4] = assay: Boyden chamber cell invasion assay, PC3-M cells; format: cell-based, human; details: 10 μM compound, 3 days
Description: Following the synthetic strategy outlined in FIG. 1a, 4′,5,7-trihydroxyisoflavone was used as the chemical scaffold. […] Note, demethylation within the cell cannot be predicted. Therefore, the loss of function was considered to be informative for methylated compounds. […] This adds further evidence of the importance of the C4′-hydroxyl for activity. […] For cell invasion, PC3-M cells were treated with 10 μM compound for a total of 3 days, and cell invasion assays were run at the end of the 3 day period, in the presence of compound. Values are the mean±SEM of three separate experiments, each run in replicates of N=3. […] Values are the mean±SEM of a single experiment, in replicates of N=4, repeated at least once (also N=4). […] The initial structure-activity relationship (SAR) data informed the second round of compound synthesis. […] Compared to 4′,5,7-trihydroxyisoflavone, KBU2046 is non-planar, lacks hydroxyl groups, and particularly those that mediate ER binding, is halogen-substituted, and has a distinctly different biological profile. These characteristics place KBU2046 in a chemically distinct class, compared to the starting compound.
Cell Invasion Assays. Boyden chamber cell invasion assays were performed as previously described^9, using either denatured collagen (BD Biosciences) or type IV human collagen (BD Biosciences), with the experiments repeated, each in N=4 replicates. In some experiments, as indicated, cells were transfected with an expression plasmid, using Lipofectamine 2000™ (Invitrogen), or with siRNA, using DharmaFect Duo (Thermo Scientific) and co-transfected with β-Galactosidase (Plasmid pCMV⋅SPORT-βgal; Life Technology).
The initial round of synthesis was designed to examine the removal of individual chemical fragments. In this manner, the importance of these functional groups in mediating efficacy (inhibition of cell invasion) could be determined. […] Initial assays were performed with PC3 and PC3-M cells. However, as these studies yielded similar findings, subsequent screening assays utilized only PC3-M cells. In designing chemical synthetic routes, priority was given to efficacy and toxicity parameters. […] These additional design features included removal of fragments that mediated genistein binding to the estrogen receptor (ER), as determined by ER-genistein 3D x-ray crystal structures (Protein Data Base IDs: 1X7R and 1X7J, for crystal structures of ERα and ERβ with bound genistein, respectively). These features also included removal of chemical fragments that are considered to increase susceptibility to rapid metabolism, for example by the cytochrome P450 (CYP) pathway. The final feature involved incorporation of chemical characteristics previously shown to be associated with effective drugs and which together generally impart more favorable pharmacologic properties, including those described by Lipinski et al. (Lipinski, C. A. et al., Adv Drug Deliv Rev 46, 3-26 (2001)).

[5] = system: protein phosphorylation in PC3-M and PC3 cells; assay: KinomeView phospho-motif antibody screen; format: cell-based, human; details: 10 μM, 3 days, ±TGFβ
Text: Seeking to identify KBU2046's biological target(s), alternative methods were pursued. The KinomeView® panel of antibodies (Cell Signaling Technology, Inc.) detect established protein phosphorylation motifs, and were used to probe for KBU2046-induced changes in protein phosphorylation (FIG. 4a and FIG. 17). Phosphoprotein changes that met the following criteria were prioritized: were induced in cells in vitro as well as in tumors of treated mice (from FIG. 2a), that counteracted transforming growth factor β (TGFβ)-induced effects, and that were reproducible. TGFβ is ubiquitous in vivo, is known to increase PCa cell invasion (Huang, X. et al., Cancer Research 65, 3470-8 (2005)), and KBU2046's anti-invasion efficacy remains in spite of TGFβ-stimulated increases in cell invasion (FIG. 18). Genistein was evaluated under identical treatment conditions for comparison. […] In tumors of treated animals KBU2046 had this same effect on this 83 kDa protein band (green arrow in FIG. 17a). The high molecular selectivity of KBU2046 was further supported by its failure to inhibit over 400 different protein kinases and 20 phosphatases examined, in three different in vitro assay systems (see, Example 1).
Phospho-proteomic Analysis. The Kinoview™ and PhosphoScan™ assays were performed by Cell Signaling Technology Inc. […]

[6] = system: human prostate cells (PC3, PC3-M, 1532NPTX, 1542NPTX, 1532CPTX, 1542CPTX); details: nanomolar concentrations; cited from earlier work
[7] = system: human PCa PC3-M cell orthotopic implants; details: murine orthotopic model; cited from earlier work
MKK4 = target: T1, MKK4 (Homo sapiens, UniProt P45985, S257E/T261E); details: low nanomolar concentrations; cited from earlier work
T1 sequence (P45985 37-399 S257E/T261E): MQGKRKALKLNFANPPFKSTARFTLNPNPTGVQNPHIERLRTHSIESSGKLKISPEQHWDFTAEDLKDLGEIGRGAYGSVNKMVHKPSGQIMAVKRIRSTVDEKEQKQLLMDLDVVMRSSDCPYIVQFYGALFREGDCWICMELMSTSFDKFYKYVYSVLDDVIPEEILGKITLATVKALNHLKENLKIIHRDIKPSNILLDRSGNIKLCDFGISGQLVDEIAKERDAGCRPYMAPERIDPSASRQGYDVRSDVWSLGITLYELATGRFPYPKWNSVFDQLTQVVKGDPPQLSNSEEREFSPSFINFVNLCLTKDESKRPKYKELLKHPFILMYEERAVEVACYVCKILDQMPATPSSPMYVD

[8] = system: phosphorylation of p38 MAPK or of HSP27; details: cited from earlier work
[9] = system: matrix metalloproteinase 2 (MMP-2) expression; details: prospective human trial; cited from earlier work

Sequence of recombinant CSRP1 (P21291 whole entry): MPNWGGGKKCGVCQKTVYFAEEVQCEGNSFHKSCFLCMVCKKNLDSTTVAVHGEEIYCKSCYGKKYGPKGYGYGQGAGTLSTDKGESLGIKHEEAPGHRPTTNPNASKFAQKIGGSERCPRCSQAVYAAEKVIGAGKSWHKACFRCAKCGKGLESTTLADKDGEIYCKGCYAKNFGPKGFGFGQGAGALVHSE

Q: For `O=C(CCCC[C@@H]1SC[C@@H]2NC(=O)N[C@@H]21)NCCOCCOCCOCCOc1ccc2c(c1)OCC(c1ccc(F)cc1)C2=O` (stereo partly drawn) [KBU2046-biotin], which single cell motility [1] is on record?
A: Its single cell motility is “biologically active”.

Q: And the “binding to HSP90β and CDC37 on the protein arrays” value [2]?
A: Its value is “not bound”.

Q: And the “binding to protein arrays” value [2]?
A: The value was “lack of binding”.

Q: And the initial hit rate ([2]; 0.5 and 10 μM)?
A: The initial hit rate was 0.03%.

Q: And the “number of proteins meeting binding criteria” value ([2]; 0.5 and 10 μM, absence of free KBU2046)?
A: The value was 3.

Q: What about the labelling of cells (PC3-M cells [3]) of the same compound?
A: The labelling of cells was “labels permeablized cells in a manner that can be competed off”.

Q: What about the “pull down of recombinant CSRP1” value (recombinant CSRP1) of the same compound?
A: The value was “no evidence of such was observed”.

Q: For `O=c1c(-c2ccc(O)cc2)coc2cc(O)cc(O)c12` [genistein, 4′,5,7-trihydroxyisoflavone], which “effect on cell invasion” value (PC3-M cells [4]) is on record?
A: Its value is “had anti-invasion efficacy”.

Q: What about the “changes in protein phosphorylation” value [5] of the same compound?
A: Its value is “induced widespread changes in protein phosphorylation”.

Q: And the “inhibition of human PCa cell invasion in vitro” value [6]?
A: The value was “inhibit human prostate cancer (PCa) cell invasion in vitro”.

Q: And the inhibition of metastasis [7]?
A: Its inhibition of metastasis is “inhibit”.

Q: What about the “inhibition of MKK4 kinase activity” value (MKK4) of the same compound?
A: The value was “inhibited the kinase activity”.

Q: And the “downstream phosphorylation of p38 MAPK and HSP27” value [8]?
A: The value was “inhibiting downstream phosphorylation of p38 MAPK”.

Q: And the “MMP-2 expression in prostate tissue” value [9]?
A: Its value is “downregulates matrix metalloproteinase 2 (MMP-2) expression in prostate tissue”.

Q: With `CN[C@@H]1C[C@H]2O[C@@](C)([C@@H]1OC)n1c3ccccc3c3c4c(c5c6ccccc6n2c5c31)C(=O)NC4` [staurosporine, reference compound] as the compound, how does the “number of proteins bound at levels >/=10 fold above background” value ([2]; positive control) read?
A: The value was 214.
